Data taken from US7678884B2, “Biologically active peptide and agent containing the same” (Seikagaku Corporation, priority 2003, dated 2010).
Ends that are not written are not given here.

Legend:
PDL cells [1] = experiment: Calcification product forming ability of PDL cells (Dahl's calcium staining, alizarin red S); type: cell-based, human; conditions: peptide at various concentrations, 10 mM sodium β-glycerophosphate, three weeks after confluent state
Protocol: The following experiment was performed to examine effect of the peptide on calcification product forming ability of cells.
To assess calcification ability of cells, Dahl's calcium staining was performed. The PDL cells were inoculated on a 24-well culture plate at a ratio of 5×10^3 cells/well, and cultured in 2S-containing DMEM added with the peptide (a) or (c) at various concentrations and adjusted by addition of 10 mM sodium β-glycerophosphate. Three weeks after the cells reached a confluent state, the cells were washed with PBS, fixed with neutrally buffered formalin and stained with alizarin red S (Wako Pure Chemical Industries).

PDL cells [2] = experiment: Cell differentiation of PDL cells (alkaline phosphatase activity, Bessey-Lowry method); type: cell-based, human; conditions: peptide at various concentrations, 2% FBS medium; one week after confluent state; versus control (FIG. 4)
From the text: (§1) PDL cells were isolated from a healthy premolar carefully extracted from a patient who visited a hospital to extract teeth for orthodontic treatment so that periodontal ligament should not be damaged as far as possible, and cultured. The extracted tooth was washed with sterilized physiological saline and phosphate-buffered saline (PBS, Nissui), and then periodontal ligament existing in ⅓ of the tooth root at the center was scraped off with a sharp knife. The pieces of periodontal ligament were transferred to a plastic plate and minced into small fragments using a round-blade knife. Tissue fragments were left standing in a plate having a diameter of 35 mm (FALCON) and cultured in Dulbecco's modified Eagle medium (DMEM, Nissui) containing antibiotics (100 U/ml of penicillin G, 100 μg/ml of streptomycin and 250 μg/ml of gentamicin) and 10% fetal bovine serum (FBS, EQUITECH-BIO) at 37° C. under 5% CO2. Then, cells released from the periodontal ligament tissue fragments were subcultured under the same conditions, and the 3rd to 5th generation cells were used for experiments. • (ii) Mouse-derived Osteoblasts
As an index of cell differentiation, alkaline phosphatase (ALP) activity of cells was determined. Cells were inoculated in a 24-well culture plate at a ratio of 5×10^3 cells/well, added with the peptide (a) at various concentrations and cultured in DMEM or αMEM containing 2% FBS. One week after the time point when the cells reached a confluent state, ALP activity was determined by the following enzymochemical method (Bessey-Lowry method, Bessey O A, Lowry O H and Brock M J, A method for the rapid determination of alkaline phosphatase with five cubic millimeter of serum, J. Biol. Chem., 164:321-329, 1946).
The cultured cells were washed with PBS and then disrupted in 10 mM Tris-HCl buffer (pH 7.4, 500 μl) for 40 seconds by using an ultrasonic homogenizer (Handy Sonic model UR-20P, Tomy Seiko) and stirred. Then, 25 μl of this sample liquid was added to 125 μl of ALP buffer (0.1 M carbonate buffer, pH 9.8, 6.7 mM p-nitrophenyl phosphate, 2 mM MgCl2) and incubated at 37° C. for 30 minutes. The reaction was terminated by addition of 125 μl of 0.2 N NaOH, and absorbance was measured at 405 nm by using a microplate reader (Model 550, Bio-Rad Laboratories).
Further, the ALP activity in DMEM containing 2% FBS and DMEM or αMEM containing 2% FBS added with peptide (c) at various concentrations was also similarly examined. The symbol “cont” in FIG. 4 indicates the results for the cells cultured in DMEM containing 2% FBS alone, “PN” indicates the results for the cells cultured in the medium added only with the peptide (a), and “PC” indicates the results for the cells cultured in the medium added only with the peptide (c). In FIG. 4, “pg” and “ng” represent “pg/ml” and “ng/ml,” respectively.
Further, in addition to the peptide (a) (derived from swine), the human-derived peptide (b) and BMP were similarly examined. The results of ALP activity measurement performed when the cells reached a confluent state are shown in FIG. 5, and the results of ALP activity measurement performed one week after the confluent state was attained are shown in FIG. 6. The symbol “cont” in the figures indicates the results for the cells cultured in DMEM containing 2% FBS alone, “B” indicates the results for the cells cultured in the medium added only with BMP2, “PN” indicates the results for the cells cultured in the medium added only with the peptide (a), and “HN” indicates the results for the cells cultured in the medium added only with the peptide (b) In the figures, the unit of numerical values shown after “B,” “PN” and “HN” is “ng/ml.”

[3] = test system: Human-derived Periodontal Ligament Cells (PDL Cells); experiment: Cell growth of PDL cells (cell number by Coulter counter); type: cell-based; conditions: peptide added at various concentrations to DMEM containing 2% FBS; counted on Days 4 and 6; versus control medium (FIG. 1, FIG. 2)
From the text: as §1, with “Then, cells released from the periodontal ligament tissue fragments were subcultured under the same conditions, and the 3rd to 5th generation cells were used for experiments. • (ii) Mouse-derived Osteoblasts” left out
The PDL cells prepared in (1) were inoculated on a 24-well culture plate (FALCON) at a ratio of 5×10^3 cells/well. […] On Days 4 and 6, the cells were separated and dispersed by using PBS containing 0.08% trypsin and 0.04% ethylenediaminetetraacetic acid (EDTA), and cell number was counted by using a Coulter counter (COULTER Z1, Coulter Electronics). […]

NKAQQPQIKRDAWRF [(c)]
significantly increased: calcification ability of the PDL cells (PDL cells [1]) | ALP activity of the PDL cells (PDL cells [2]) | PDL cell number (cell growth promoting effect) [3]
